{"source": "ChEMBL document CHEMBL6083291", "about": "“Discovery of Thiochroman Derivatives as Potent, Oral Selective Estrogen Receptor Degraders and Antagonists for the Treatment of Endocrine-Resistant Breast Cancer” (J Med Chem, 2024)", "key": {"animal or person [1]": {"assay": "animal or person", "conditions": "Homo sapiens, Tamoxifen-resistant MCF7, po, 504 h, read-out: TGI"}, "T47D": {"tested_on": "T47D", "assay": "Antiproliferative activity against human T47D cells assessed as reduction in cell viability"}, "[2]": {"assay": "Ratio of drug level in brain to plasma in Sprague-Dawley rat at 20 mg/kg, po measured for 10 hrs by LC-MS/MS analysis", "assay_type": "ADME, organism-based", "conditions": "brain and plasma"}, "[3]": {"assay": "Half life in Sprague-Dawley rat plasma at 2 mg/kg, iv measured for 24 hrs by LC-MS/MS analysis", "assay_type": "ADME, organism-based"}, "[4]": {"assay": "MRT in Sprague-Dawley rat plasma at 20 mg/kg, po measured for 10 hrs by LC-MS/MS analysis", "assay_type": "ADME, organism-based"}, "[5]": {"assay": "Volume of distribution at steady state in Sprague-Dawley rat plasma at 2 mg/kg, iv measured for 24 hrs by LC-MS/MS analysis", "assay_type": "ADME, organism-based", "conditions": "read-out: Vdss"}, "[6]": {"assay": "Antiproliferative activity against endocrine-resistant human MCF7 Tam1 cells assessed as inhibition of cell growth", "conditions": "Tamoxifen-resistant MCF7"}, "[7]": {"assay": "AUC(0 to t) in Sprague-Dawley rat brain at 20 mg/kg, po measured for 10 hrs by LC-MS/MS analysis", "assay_type": "ADME, organism-based", "conditions": "in vivo"}, "MCF7 [8]": {"tested_on": "MCF7", "assay": "Antiproliferative activity against human MCF7 cells assessed as reduction in cell viability incubated for 6 days by CellTiter-Glo reagent based luminescence analysis", "conditions": "mcf7"}, "MDA-MB-361": {"tested_on": "MDA-MB-361", "assay": "Antiproliferative activity against human MDA-MB-361 cells assessed as reduction in cell viability"}, "[9]": {"assay": "Cmax in Sprague-Dawley rat plasma at 10 mg/kg, po measured for 24 hrs by LC-MS/MS analysis", "assay_type": "ADME, organism-based"}, "[10]": {"assay": "AUC(0 to t) in Sprague-Dawley rat plasma at 10 mg/kg, po measured for 24 hrs by LC-MS/MS analysis", "assay_type": "ADME, organism-based"}, "BT-474": {"tested_on": "BT-474", "assay": "Antiproliferative activity against human BT-474 cells assessed as reduction in cell viability"}, "[11]": {"assay": "Oral bioavailability in Sprague-Dawley rat at 10 mg/kg measured for 24 hrs by LC-MS/MS analysis", "assay_type": "ADME, organism-based", "conditions": "in vivo"}, "[12]": {"assay": "C0 in Sprague-Dawley rat plasma at 2 mg/kg, iv by LC-MS/MS analysis", "assay_type": "ADME, organism-based"}, "[13]": {"assay": "Half life in Sprague-Dawley rat plasma at 10 mg/kg, po measured for 24 hrs by LC-MS/MS analysis", "assay_type": "ADME, organism-based"}, "[14]": {"assay": "AUC(0 to t) in Sprague-Dawley rat plasma at 2 mg/kg, iv measured for 24 hrs by LC-MS/MS analysis", "assay_type": "ADME, organism-based"}, "[15]": {"assay": "Cmax in Sprague-Dawley rat plasma at 20 mg/kg, po measured for 10 hrs by LC-MS/MS analysis", "assay_type": "ADME, organism-based"}, "[16]": {"assay": "Tmax in Sprague-Dawley rat brain at 20 mg/kg, po measured for 10 hrs by LC-MS/MS analysis", "assay_type": "ADME, organism-based"}, "[17]": {"assay": "MRT in Sprague-Dawley rat brain at 20 mg/kg, po measured for 10 hrs by LC-MS/MS analysis", "assay_type": "ADME, organism-based"}, "animal or person [18]": {"assay": "animal or person", "conditions": "Homo sapiens, Tamoxifen-resistant MCF7, po, 504 h, read-out: TGI", "remark": "listed apart in the source"}, "[19]": {"assay": "MRT in Sprague-Dawley rat plasma at 10 mg/kg, po measured for 24 hrs by LC-MS/MS analysis", "assay_type": "ADME, organism-based"}, "[20]": {"assay": "MRT in Sprague-Dawley rat plasma at 2 mg/kg, iv measured for 24 hrs by LC-MS/MS analysis", "assay_type": "ADME, organism-based"}, "[21]": {"assay": "Half life in Sprague-Dawley rat plasma at 20 mg/kg, po measured for 10 hrs by LC-MS/MS analysis", "assay_type": "ADME, organism-based"}, "[22]": {"assay": "Tmax in Sprague-Dawley rat plasma at 20 mg/kg, po measured for 10 hrs by LC-MS/MS analysis", "assay_type": "ADME, organism-based"}, "MCF7 [23]": {"tested_on": "MCF7", "assay": "Antiproliferative activity against human MCF7 cells harboring ER-alpha Y537S mutant assessed as inhibition of cell growth"}, "[24]": {"assay": "Tmax in Sprague-Dawley rat plasma at 10 mg/kg, po measured for 24 hrs by LC-MS/MS analysis", "assay_type": "ADME, organism-based"}, "[25]": {"assay": "AUC(0 to t) in Sprague-Dawley rat plasma at 20 mg/kg, po measured for 10 hrs by LC-MS/MS analysis", "assay_type": "ADME, organism-based"}, "[26]": {"assay": "Clearance in Sprague-Dawley rat plasma at 2 mg/kg, iv measured for 24 hrs by LC-MS/MS analysis", "assay_type": "ADME, organism-based"}, "CAMA-1": {"tested_on": "CAMA-1", "assay": "Antiproliferative activity against human CAMA-1 cells assessed as reduction in cell viability"}, "[27]": {"assay": "Toxicity in Sprague-Dawley rat assessed as thickened endometrium in uterus at 10 mg/kg, po qd for 3 days by Hematoxylin-Eosin staining based analysis", "assay_type": "organism-based", "conditions": "in vivo, 72 h, time 3 day"}, "[28]": {"assay": "Toxicity against Balb/c mouse xenografted with human MCF7 Tam1 cells assessed as changes in body weight at 10 to 30 mg/kg, po qd for 21 days", "assay_type": "organism-based", "conditions": "in vivo, 504 h, dose 10-30 mg/kg, time 21 day"}, "[29]": {"assay": "Cmax in Sprague-Dawley rat brain at 20 mg/kg, po measured for 10 hrs by LC-MS/MS analysis", "assay_type": "ADME, organism-based"}, "[30]": {"assay": "Half life in Sprague-Dawley rat brain at 20 mg/kg, po measured for 10 hrs by LC-MS/MS analysis", "assay_type": "ADME, organism-based"}, "[31]": {"assay": "Ratio of drug level in brain to plasma in mouse", "assay_type": "ADME", "conditions": "brain and plasma"}}}
{"smiles": "COc1cc(F)ccc1[C@H]1CSc2cc(O)ccc2[C@H]1c1ccc(OCCN2CC(CF)C2)cc1", "values": [{"measurement": "inhibition in vivo at 10 mg/kg", "setting": "animal or person [1]", "result": 26.8, "unit": "%"}, {"measurement": "IC50", "setting": "T47D", "result": 4, "unit": "nM"}, {"measurement": "Kp at 10 h", "setting": "[2]", "result": 3.05}, {"measurement": "half-life", "setting": "[3]", "result": 240, "unit": "min"}, {"measurement": "MRT", "setting": "[4]", "result": 10.6, "unit": "h"}, {"measurement": "Vd", "setting": "[5]", "result": 6.6, "unit": "L/kg"}, {"measurement": "IC50", "setting": "[6]", "result": 5.37, "unit": "nM"}, {"measurement": "AUCt", "setting": "[7]", "result": 11170, "unit": "ng·h/g"}, {"measurement": "IC50", "setting": "MCF7 [8]", "result": 0.25, "unit": "nM"}, {"measurement": "IC50", "setting": "MDA-MB-361", "result": "~15", "unit": "nM"}, {"measurement": "Cmax", "setting": "[9]", "result": 198, "unit": "ng/mL"}, {"measurement": "AUC(0-t) at 24 h", "setting": "[10]", "result": 1360, "unit": "ng·h/mL"}, {"measurement": "IC50", "setting": "BT-474", "result": 4, "unit": "nM"}, {"measurement": "bioavailability", "setting": "[11]", "result": 19.9, "unit": "%"}, {"measurement": "C0", "setting": "[12]", "result": 741, "unit": "ng/mL"}, {"measurement": "half-life", "setting": "[13]", "result": 534, "unit": "min"}, {"measurement": "AUC(0-t) at 24 h", "setting": "[14]", "result": 1370, "unit": "ng·h/mL"}, {"measurement": "Cmax", "setting": "[15]", "result": 509, "unit": "ng/mL"}, {"measurement": "Tmax", "setting": "[16]", "result": 6, "unit": "h"}, {"measurement": "MRT", "setting": "[17]", "result": 12.4, "unit": "h"}, {"measurement": "inhibition in vivo at 30 mg/kg", "setting": "animal or person [18]", "result": 64.5, "unit": "%"}, {"measurement": "MRT", "setting": "[19]", "result": 13.4, "unit": "h"}, {"measurement": "MRT", "setting": "[20]", "result": 5.24, "unit": "h"}, {"measurement": "half-life", "setting": "[21]", "result": 336, "unit": "min"}, {"measurement": "Tmax", "setting": "[22]", "result": 6, "unit": "h"}, {"measurement": "IC50", "setting": "MCF7 [23]", "result": 10.6, "unit": "nM"}, {"measurement": "Tmax", "setting": "[24]", "result": 3, "unit": "h"}, {"measurement": "AUC(0-t) at 10 h", "setting": "[25]", "result": 3660, "unit": "ng·h/mL"}, {"measurement": "clearance", "setting": "[26]", "result": 23.3, "unit": "mL/min/kg"}, {"measurement": "IC50", "setting": "CAMA-1", "result": 4, "unit": "nM"}, {"measurement": "Activity", "setting": "[27]", "result": "Non-toxic"}, {"measurement": "Activity", "setting": "[28]", "result": "Non-toxic"}, {"measurement": "Cmax", "setting": "[29]", "result": 1470, "unit": "ng/g"}, {"measurement": "half-life", "setting": "[30]", "result": 420, "unit": "min"}]}
{"smiles": "CCNCCc1ccc(CN(CC)c2cc(OC)ccc2[C@@H]2CCc3cc(O)ccc3C2)cc1", "note": "[ELACESTRANT]", "values": [{"measurement": "Kp", "setting": "[31]", "result": 0.36}]}
